Reference: patent US20090191177A1, “Enantiomerically Pure (-) 2-[1-(7-methyl-2-(morpholin-4-yl)-4-oxo-4H-pyrido[1,2-A]pyrimidin-9-yl)ethylamino]benzoic Acid, Its Use In Medical Therapy, And A Pharmaceutical Composition Comprising It - 026” (priority 2008, published 2009)

System: washed platelets
Assay: Washed Platelet Aggregation (WPA), CD9 antibody-induced
Type: cell-based
Conditions: washed platelets from healthy volunteers, aggregation induced by mouse anti-human CD9 antibody
Description: Blood was collected from healthy volunteers by venipuncture using a Venflon needle 1.5*45 mm (17 GA, 1.77 IN). The first 2 ml of blood was discarded prior to collecting aliquotes into tubes containing acid citrate dextrose (ACD). One volume of ACD is required for six volumes of blood.
The anticoagulated blood was centrifuged for 15 min at 240×g to obtain platelet rich plasma (PRP). PRP was transferred to a new tube and centrifuged for 15 min at 2200×g. The supernatant was discarded and the platelet pellet re-suspended to […] in Tyrodes buffer (TB) containing 1 μM hirudin and 0.02 U/mL apyrase. The platelet suspension was left to rest at room temperature for 30 min. Just prior to time for assay, CaCl2 was added to a final concentration of 2 mM. The Compound, or wortmannin, was dissolved in DMSO and added to a 96 well plate prior to the addition of the washed platelet suspension. The platelet suspension was preincubated with inhibitor for 5 min. Light absorption at 650 nm was recorded before and after a 5 min plate shake and referred to as recording 0 (R0) and R1. A mouse anti-human CD9 antibody was added (at a donor specific concentration) to each well prior to next 10 min plate shake and light absorption recording; R2.
A concentration response for CD9 antibody-induced aggregation in the absence or presence of 1 μM wortmannin (complete PI3K inhibition) was performed in each washed platelet suspension prior to testing of the Compound. The CD9 antibody concentration with the largest dependence of PI3K inhibition was chosen for the test.
Light absorbance in wells with TB were subtracted from all readings before percent aggregation was calculated according the formula: [(R1−R2)/R1]×100=% aggregation. Spontaneous aggregation or pro-aggregatory effect of the inhibitor was evaluated by the same formula, [(R0−R1)/R0]×100=% aggregation.

SMILES	IC50 (Homo sapiens, Platelet)	IC50
Cc1cc(C(C)Nc2ccccc2C(=O)O)c2nc(N3CCOCC3)cc(=O)n2c1 (racemic) [WO2004016607, 2-[1-(7-Methyl-2-(morpholin-4-yl)-4-oxo-4H-pyrido[1,2-α]pyrimidin-9-yl)ethylamino]benzoic acid, reference compound]	10 nM	
Cc1cc(C(C)Nc2ccccc2C(=O)O)c2nc(N3CCOCC3)cc(=O)n2c1 (single isomer, unassigned; (+)) [Ex. 2, (+) 2-[1-(7-Methyl-2-(morpholin-4-yl)-4-oxo-4H-pyrido[1,2-a]pyrimidin-9-yl)ethylamino]benzoic acid]		1650 nM
Cc1cc(C(C)Nc2ccccc2C(=O)O)c2nc(N3CCOCC3)cc(=O)n2c1 (single isomer, unassigned; (-)) [Ex. 1, (−) 2-[1-(7-Methyl-2-(morpholin-4-yl)-4-oxo-4H-pyrido[1,2-a]pyrimidin-9-yl)ethylamino]benzoic acid]		6 nM
